Biological target: Aβ42 (Homo sapiens, UniProt P05067)
Test: Th-T (thioflavin-T) assay of Aβ42 aggregation
Assay type: biochemical
Conditions: for Th-T assay plate reading, mean of three wells (Supplementary Fig. 47): source data, Ab alone and No Ab as controls

Aβ42, sequence (P05067 672-713): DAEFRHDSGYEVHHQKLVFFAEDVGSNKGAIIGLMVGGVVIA

C=C1CCC2C(C)(CC(=O)C=C(C)C)C(O)CCC2(C)C1Cc1c(OC)oc(C)c(C)c1=O (stereo not shown) [Compound 25]
Th-T fluorescence, mean of three wells (Aβ42 aggregation time course, reading M117): 3.606
Th-T fluorescence, mean of three wells (Aβ42 aggregation time course, reading M118): 3.615
Th-T fluorescence, mean of three wells (Aβ42 aggregation time course, reading M119): 3.596
Th-T fluorescence, mean of three wells (Aβ42 aggregation time course, reading M120): 3.613
Th-T fluorescence, mean of three wells (Aβ42 aggregation time course, reading M121): 3.583
Th-T fluorescence, mean of three wells (Aβ42 aggregation time course, reading M122): 3.577
Th-T fluorescence, mean of three wells (Aβ42 aggregation time course, reading M123): 3.546
Th-T fluorescence, mean of three wells (Aβ42 aggregation time course, reading M124): 3.572
Th-T fluorescence, mean of three wells (Aβ42 aggregation time course, reading M125): 3.555
Th-T fluorescence, mean of three wells (Aβ42 aggregation time course, reading M126): 3.529
Th-T fluorescence, mean of three wells (Aβ42 aggregation time course, reading M127): 3.54
Th-T fluorescence, mean of three wells (Aβ42 aggregation time course, reading M128): 3.504
Th-T fluorescence, mean of three wells (Aβ42 aggregation time course, reading M129): 3.564
Th-T fluorescence, mean of three wells (Aβ42 aggregation time course, reading M130): 3.54
Th-T fluorescence, mean of three wells (Aβ42 aggregation time course, reading M131): 3.5322
Th-T fluorescence, mean of three wells (Aβ42 aggregation time course, reading M132): 3.554
Th-T fluorescence, mean of three wells (Aβ42 aggregation time course, reading M133): 3.505
Th-T fluorescence, mean of three wells (Aβ42 aggregation time course, reading M134): 3.525
Th-T fluorescence, mean of three wells (Aβ42 aggregation time course, reading M135): 3.538
Th-T fluorescence, mean of three wells (Aβ42 aggregation time course, reading M136): 3.5303
Th-T fluorescence, mean of three wells (Supplementary Fig. 47, reading M137): 3.5763
Th-T fluorescence, mean of three wells (Supplementary Fig. 47, reading M138): 3.512
Th-T fluorescence, mean of three wells (Supplementary Fig. 47, reading M139): 3.524
Th-T fluorescence, mean of three wells (Supplementary Fig. 47, reading M140): 3.521
Th-T fluorescence, mean of three wells (Supplementary Fig. 47, reading M141): 3.497
Th-T fluorescence, mean of three wells (Supplementary Fig. 47, reading M142): 3.5241
Th-T fluorescence, mean of three wells (Supplementary Fig. 47, reading M143): 3.477
Th-T fluorescence, mean of three wells (Supplementary Fig. 47, reading M144): 3.474
Th-T fluorescence, mean of three wells (Supplementary Fig. 47, reading M145): 3.514
Th-T fluorescence, mean of three wells (Supplementary Fig. 47 source data, measurement M37 of time course): 3.725
Th-T fluorescence, mean of three wells (Supplementary Fig. 47 source data, measurement M38 of time course): 3.672
Th-T fluorescence, mean of three wells (Supplementary Fig. 47 source data, measurement M39 of time course): 3.686
Th-T fluorescence, mean of three wells (Supplementary Fig. 47 source data, measurement M40 of time course): 3.696
Th-T fluorescence, mean of three wells (Supplementary Fig. 47 source data, measurement M41 of time course): 3.723
Th-T fluorescence, mean of three wells (Supplementary Fig. 47 source data, measurement M42 of time course): 3.705
Th-T fluorescence, mean of three wells (Supplementary Fig. 47 source data, measurement M43 of time course): 3.698
Th-T fluorescence, mean of three wells (Supplementary Fig. 47 source data, measurement M44 of time course): 3.759
Th-T fluorescence, mean of three wells (Supplementary Fig. 47 source data, measurement M45 of time course): 3.771
Th-T fluorescence, mean of three wells (Supplementary Fig. 47 source data, measurement M46 of time course): 3.76
Th-T fluorescence, mean of three wells (Supplementary Fig. 47 source data, measurement M47 of time course): 3.73
Th-T fluorescence, mean of three wells (Supplementary Fig. 47 source data, measurement M48 of time course): 3.764
Th-T fluorescence, mean of three wells (Supplementary Fig. 47 source data, measurement M49 of time course): 3.767
Th-T fluorescence, mean of three wells (Supplementary Fig. 47 source data, measurement M50 of time course): 3.788
Th-T fluorescence, mean of three wells (Supplementary Fig. 47 source data, measurement M51 of time course): 3.755
Th-T fluorescence, mean of three wells (Supplementary Fig. 47 source data, measurement M52 of time course): 3.752
Th-T fluorescence, mean of three wells (Supplementary Fig. 47 source data, measurement M53 of time course): 3.724
Th-T fluorescence, mean of three wells (Supplementary Fig. 47 source data, measurement M54 of time course): 3.756
Th-T fluorescence, mean of three wells (Supplementary Fig. 47 source data, measurement M55 of time course): 3.771
Th-T fluorescence, mean of three wells (Supplementary Fig. 47 source data, measurement M56 of time course): 3.762
Th-T assay plate reading, mean of three wells (Supplementary Fig. 47) (measurement M1): 0.2149
Th-T assay plate reading, mean of three wells (Supplementary Fig. 47) (measurement M2): 0.2276
Th-T assay plate reading, mean of three wells (Supplementary Fig. 47) (measurement M3): 0.2865
Th-T assay plate reading, mean of three wells (Supplementary Fig. 47) (measurement M4): 0.3444
Th-T assay plate reading, mean of three wells (Supplementary Fig. 47) (measurement M5): 0.4109
Th-T assay plate reading, mean of three wells (Supplementary Fig. 47) (measurement M6): 0.436
Th-T assay plate reading, mean of three wells (Supplementary Fig. 47) (measurement M7): 0.4804
Th-T assay plate reading, mean of three wells (Supplementary Fig. 47) (measurement M8): 0.5318
Th-T assay plate reading, mean of three wells (Supplementary Fig. 47) (measurement M9): 0.5868
